Results as given in patent US20250197373A1, “SMALL MOLECULE COMPOUND OR SALT THEREOF OR SOLVATE OF THEM, GUANINE NUCLEOTIDE-BINDING PROTEIN G(Q) SUBUNIT ALPHA (GNAQ) INHIBITOR CONTAINING THE SAME AND METHOD FOR TREATING AND/OR PREVENTING CANCER” (INDUSTRIAL TECHNOLOGY RESEARCH INSTITUTE, priority 2023, published 2025).

What was measured:
Assay type in all cases: cell-based
MCF-7 cells = assay: Inhibition of growth of mammary gland cancer cells MCF-7 (PrestoBlue); conditions: Homo sapiens, MCF7, 168 h, 7 days culture, 2% fetal bovine serum, read-out: Inhibitory activity (evaluated by IC50)
Experimental: Human mammary gland cancer cells, MCF-7 cells and MCF-7 GNAQ (T96S) cells (MCF-7 cells expressing GNAQ (T96S) after GNAQ gene deletion) were cultured in MEM medium.
1×10^3 of the cells mentioned above were seeded in a 96-well plate and cultured overnight (at least 16 hours) in a carbon dioxide incubator.
(§1) After overnight incubation, the supernatant was removed. Next, after 200 μL of cell culture medium (containing 2% fetal bovine serum) containing different concentrations of test compound was added to each well of the 96-well plate, the 96-well plate was placed in a 5% carbon dioxide incubator at 37° C. for 7 days further culture. After that, an additional 30 μL of diluted PrestoBlue™ Cell Viability Reagent (Catalog Number: A13261; Thermo Fisher Scientific) (4 μL stock solution and 26 μL culture medium) was added to each well of the 96-well plate and the reaction was continued for further about 1 hour.
Finally, the fluorescence value at the wavelength of 535/615 nm of each well was read with a plate enzyme immunoassay analyzer, and the inhibitory rate of the compound on mammary gland cancer cells were calculated using the following formula.
Moreover, the half maximal inhibitory concentration (IC50) of the compound on the growth of mammary gland cancer cells was calculated with the inhibitory rate of the compound on mammary gland cancer cells at each concentration through the online half maximal inhibitory concentration (IC50) calculation software, IC50 Calculator, provided by AAT Bioquest company on its website (https://www.aatbio.com/tools/ic50-calculator).
Finally, the inhibition of the compound on the growth of mammary gland cancer cells was evaluated by the calculated half maximal inhibitory concentration (IC50) of the compound on the growth of mammary gland cancer cells.
The inhibition of the compound on the growth of breast cancer cells was evaluated by the half maximal inhibitory concentration (IC50) of the compound (one of Compound 1 to Compound 15 prepared above) on the growth of mammary gland cancer cells through the human mammary gland cancer cell line MCF-7 and the human mammary gland cancer cell line MCF-7 GNAQ (T96S) expressing the mutated gene.

[1] = tested on: MDA-MB-231-OE-GNAQ (T96S); assay: Inhibition of growth of triple-negative breast cancer cells MDA-MB-231-OE-GNAQ (T96S) (PrestoBlue); conditions: Homo sapiens, 168 h, 7 days culture, 2% fetal bovine serum, read-out: Inhibitory activity (evaluated by IC50)
Experimental: (§2) Triple-negative breast cancer cells, MDA-MB-231 and MDA-MB-231-OE-GNAQ (T96S) (additionally expressing GNAQ (T96S)) were cultured in L-15 medium and in a temperature-controlled incubator without need of additional offer of 5% carbon dioxide.
(§3) 1×10^3 of the cells mentioned above were seeded in a 96-well plate, placed in a temperature-controlled incubator and cultured overnight (at least 16 hours).
as §1, with “a” for “a 5% carbon dioxide incubator at”, “C. incubator” for “C.”
(§4) Finally, the fluorescence value at the wavelength of 535/615 nm of each well was read with a plate enzyme immunoassay analyzer, and the inhibitory rate of the compound on triple-negative breast cancer cells were calculated using the following formula.
(§5) Moreover, the half maximal inhibitory concentration (IC50) of the compound on the growth of triple-negative breast cancer cells was calculated with the inhibitory rate of compound on triple-negative breast cancer cells at each concentration through the online half maximal inhibitory concentration (IC50) calculation software, IC50 Calculator, provided by AAT Bioquest company on its website (https://www.aatbio.com/tools/ic50-calculator).
(§6) Finally, the inhibition of the compound on the growth of triple-negative breast cancer cells was evaluated by the calculated half maximal inhibitory concentration (IC50) of the compound on the growth of triple-negative breast cancer cells.
(§7) The inhibition of the compound on the growth of triple-negative breast cancer cells was evaluated by the half maximal inhibitory concentration (IC50) of the compound (one of Compound 1 to Compound 15 prepared above) on the growth of triple-negative breast cancer cells through the human triple-negative breast cancer cell lines MDA-MB-231 and MDA-MB-231-OE-GNAQ (T96S) (additionally expressing GNAQ (T96S)).

[2] = Half cytotoxic concentration on normal mammary gland epithelial cells MCF-10A-5E (PrestoBlue); conditions: human, MCF-10A-5E normal mammary gland epithelial cells, 5 days culture, 10% horse serum, read-out: Non-toxicity (evaluated by CC50)
Experimental: Human normal mammary epithelial cells, MCF-10A-5E cells, were cultured in DMEM/F12K (1:1) medium, wherein Insulin-Transferrin-Selenium (ITS-G) (41400045; Thermo Fisher Scientific) diluted 1,000-fold for use, EGF stock (1 mg/mL) (10605-HNAE; Sino Biological) diluted 2,000-fold for use and Hydrocortisone stock (1 mg/mL) (S1696; Selleck Chemicals) diluted 2,000-fold for use were additionally added to the medium.
5×10^3 of the cells mentioned above were seeded in a 96-well plate and cultured overnight (at least 16 hours) in a carbon dioxide incubator.
as §1, with “(containing 10% horse” for “(containing 2% fetal bovine”, “for 5” for “for 7”
Finally, the fluorescence value at the wavelength of 535/615 nm of each well was read with a plate enzyme immunoassay analyzer, and the fatality rate of the compound on normal mammary gland epithelial cells were calculated using the following formula.
Moreover, the half cytotoxic concentration (50% cytotoxic concentration, CC50) of the compound on normal mammary gland epithelial cells was calculated with the fatality rate of compound on normal mammary gland epithelial cells at each concentration through the online half maximal inhibitory concentration (IC50) calculation software, ICso Calculator, provided by AAT Bioquest company on its website (https://www.aatbio.com/tools/ic50-calculator).
Finally, toxicity of the compound on normal mammary gland epithelial cells was evaluated by the calculated half cytotoxic concentration (CC50) of the compound on normal mammary gland epithelial cells.
In addition, the toxicity of the compound on normal mammary gland epithelial cells was evaluated by the half cytotoxic concentration (CC50) of the compound (one of Compound 1 to Compound 15 prepared above) on normal mammary gland epithelial cells through the human normal mammary gland epithelial cell line MCF-T0A-5E.

MDA-MB-231 = assay: Inhibition of growth of triple-negative breast cancer cells MDA-MB-231 (PrestoBlue); conditions: Homo sapiens, 168 h, 7 days culture, 2% fetal bovine serum, read-out: Inhibitory activity (evaluated by IC50)
Experimental: as §2, §3
as §1, with “a” for “a 5% carbon dioxide incubator at”, “C. incubator” for “C.”
as §4, §5, §6, §7

Row | IC50 (MCF-7 cells) [nM] | IC50 [1] [nM] | IC50 (MDA-MB-231) [nM] | Compound | CC50 at 5 days [2] [nM]
1 | 310 to 2500 | 310 to 2500 | 310 to 2500 | FC(F)(F)c1cccc(-c2cccc(-c3ccc(NC(=S)Nc4cc(Cl)nc(Cl)c4)cc3)n2)c1 [Compound 10] | > 20000
2 | 310 to 2500 | 310 to 2500 | 310 to 2500 | O=C(Nc1cccc(-c2ccnc(-c3ccc(F)c(F)c3)n2)c1)Nc1cc(Cl)nc(Cl)c1 [Compound 4] | 5000 to 10000
3 | 310 to 2500 | 310 to 2500 | 310 to 2500 | O=C(Nc1cccc(-c2cccc(-c3ccncc3)n2)c1)Nc1cc(Cl)nc(Cl)c1 [Compound 13] | > 20000
4 | 310 to 2500 | 310 to 2500 | 310 to 2500 | O=C(Nc1ccc(-c2ccnc(-c3cccc(C(F)(F)F)c3)n2)cc1)Nc1cc(Cl)nc(Cl)c1 [Compound 7] | 10000 to 20000
5 | < 310 | 310 to 2500 | 310 to 2500 | O=C(Nc1ccc(-c2nc(-c3ccccc3)ncc2Cl)cc1)Nc1cc(Cl)nc(Cl)c1 [Compound 15] | 10000 to 20000
6 | 310 to 2500 | 310 to 2500 | 310 to 2500 | O=C(Nc1ccc(-c2cccc(-c3cccc(C(F)(F)F)c3)n2)cc1)Nc1cc(Cl)nc(Cl)c1 [Compound 9] | 10000 to 20000
7 | 310 to 2500 | 310 to 2500 | 310 to 2500 | O=C(Nc1cccc(-c2ccnc(-c3cccc(C(F)(F)F)c3)n2)c1)c1cc(Cl)nc(Cl)c1 [Compound 5] | > 20000
8 | 310 to 2500 | 310 to 2500 | 310 to 2500 | N#Cc1cccc(-c2nccc(-c3cccc(NC(=O)Nc4cc(Cl)nc(Cl)c4)c3)n2)c1 [Compound 3] | 10000 to 20000
9 | 310 to 2500 | 310 to 2500 | 310 to 2500 | N#Cc1cccc(-c2cccc(-c3ccc(NC(=S)Nc4cc(Cl)nc(Cl)c4)cc3)n2)c1 [Compound 11] | > 20000
10 | < 310 | 310 to 2500 | 310 to 2500 | O=C(Nc1cccc(-c2cc(-c3cccc(C(F)(F)F)c3)ncn2)c1)Nc1cc(Cl)nc(Cl)c1 [Compound 14] | 10000 to 20000
11 | 310 to 2500 | 310 to 2500 | 310 to 2500 | O=C(Nc1ccc(-c2ccnc(-c3cccc(C(F)(F)F)c3)n2)cc1)Nc1ccc(Cl)c(C(F)(F)F)c1 [Compound 8] | 10000 to 20000
12 | 310 to 2500 | 310 to 2500 | 310 to 2500 | O=C(Nc1ccc(-c2cccc(-c3ccncc3)n2)cc1)Nc1ccc(Cl)c(C(F)(F)F)c1 [Compound 12] | 10000 to 20000
13 | 310 to 2500 | 2500 to 5000 | 2500 to 5000 | O=C(Nc1ccc(-c2ccnc(-c3ccncc3)n2)cc1)Nc1ccc(Cl)c(C(F)(F)F)c1 [Compound 6] | 10000 to 20000
14 | 310 to 2500 | 310 to 2500 | 310 to 2500 | O=C(Nc1cccc(-c2ccnc(-c3cccc(C(F)(F)F)c3)n2)c1)Nc1cc(Cl)nc(Cl)c1 [Compound 2] | 10000 to 20000
15 | 310 to 2500 | 310 to 2500 | 310 to 2500 | O=C(Nc1cccc(-c2ccnc(-c3ccnc(Cl)c3)n2)c1)Nc1cc(Cl)nc(Cl)c1 [Compound 1] | > 20000
